This note sets out measurements from patent US6583147B1, “Pyrazolopyrimidinone derivatives for the treatment of impotence” (Dong A Pharm Co., Ltd., priority 1998, dated 2003).

Values after ≈ are worked out from the molar mass of the structure shown. Where two headings read alike, the source gives them in different places.

Data set [1] can be described thus: Solubility in buffer solution in pH=2&5. Format: physicochemical. The following applies: for solubility at 30 min: 20 °C, thermodynamic from solid. As for the experimental part:
According to that defined in the Korea Pharmacopoeia, citrate-HCl buffer (pH 2) and citrate-NaOH buffer (pH 5) solutions were added to the powdered compounds of formula 1, respectively. After subsequent severe shaking for 30 sec every 5 min in […] for 30 min, the level of compounds in the filtrate was measured by high performance liquid chromatography.

Data set [2] is described as follows: Acute oral toxicity test in rats. The settings on record: SD, rat, in vivo, 1 g/kg; rats, oral single dose; read-out: lethal dose (LD50) of oral administration.
Data set [3] has as its target T1, Phosphodiesterase-5 enzyme (PDE 5) (Homo sapiens, UniProt O76074).
T1 construct: separated by HPLC (Mono Q anion exchange column) with concentration gradient of 0-500 mM NaCl to elute PDE isozymes; from tissue; host or cells: human corpus cavernosal tissue
Put plainly: Test for phosphodiesterase-5 (PDE 5) activity. The settings on record: PDE 5 fraction from human corpus cavernosal tissues. Format: biochemical.

For the next data set, the system named is rats. In words: Penile erection test using rats. The data set is classed as in vivo, rat. The following applies: oral single dose 10 mg/kg in 0.5% methyl cellulose, observed for 2 hours.
The target of data set [4] is T2, Phosphodiesterase-3 enzyme (PDE 3) (Oryctolagus cuniculus, UniProt G1ST54).
T2 construct: The supernatant was separated by DEAE-cellulose column chromatography (Whatman DE52 bead); from tissue; host or cells: rabbit platelets
T2 sequence (G1ST54 1-1128): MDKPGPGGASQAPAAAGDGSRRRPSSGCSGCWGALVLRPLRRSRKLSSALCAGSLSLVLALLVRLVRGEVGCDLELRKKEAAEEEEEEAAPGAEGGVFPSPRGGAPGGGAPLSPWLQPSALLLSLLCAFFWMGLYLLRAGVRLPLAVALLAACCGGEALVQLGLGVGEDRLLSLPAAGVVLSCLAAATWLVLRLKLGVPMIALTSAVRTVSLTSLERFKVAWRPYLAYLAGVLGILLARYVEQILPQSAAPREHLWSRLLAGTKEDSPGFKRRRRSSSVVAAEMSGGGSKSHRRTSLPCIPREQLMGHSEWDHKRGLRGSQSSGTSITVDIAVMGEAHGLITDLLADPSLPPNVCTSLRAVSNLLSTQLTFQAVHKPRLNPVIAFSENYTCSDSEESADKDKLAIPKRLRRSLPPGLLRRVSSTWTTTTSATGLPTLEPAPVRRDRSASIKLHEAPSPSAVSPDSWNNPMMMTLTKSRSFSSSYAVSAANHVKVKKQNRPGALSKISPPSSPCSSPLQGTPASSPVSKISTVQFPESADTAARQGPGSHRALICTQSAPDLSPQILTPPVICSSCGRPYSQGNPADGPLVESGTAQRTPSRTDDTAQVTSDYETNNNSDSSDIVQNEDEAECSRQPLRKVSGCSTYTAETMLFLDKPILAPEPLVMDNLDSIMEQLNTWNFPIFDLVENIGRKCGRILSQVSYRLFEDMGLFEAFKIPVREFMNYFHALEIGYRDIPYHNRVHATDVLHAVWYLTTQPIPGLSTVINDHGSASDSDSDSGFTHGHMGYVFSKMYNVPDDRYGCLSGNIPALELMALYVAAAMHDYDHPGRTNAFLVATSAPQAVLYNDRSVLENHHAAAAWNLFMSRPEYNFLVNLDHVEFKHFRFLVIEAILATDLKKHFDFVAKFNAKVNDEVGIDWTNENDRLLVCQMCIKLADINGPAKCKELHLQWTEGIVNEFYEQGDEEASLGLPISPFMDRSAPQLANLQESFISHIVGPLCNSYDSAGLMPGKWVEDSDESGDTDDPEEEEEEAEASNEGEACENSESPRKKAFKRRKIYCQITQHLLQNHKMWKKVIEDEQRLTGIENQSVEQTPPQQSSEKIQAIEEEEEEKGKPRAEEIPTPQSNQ
In words: Test for phosphodiesterase-3 (PDE 3) activity. Format: biochemical. The following applies: PDE 3 fraction from platelets of a rabbit. As to the method:
Phosphodiesterase-3 enzyme (PDE 3) was separated from platelets of a rabbit. About 60 ml of blood was collected from a puncture of the abdominal artery of a rabbit in heparinized syringes. Platelet-rich plasma was harvested by centrifugation for 5 min at 450×g and further centrifuged for 15 min at 1,200×g to precipitate the platelets. The platelets were resuspended in homogenizing buffer (50 mM Tris-HCl, 1 mM MgCl2, pH 7.4), homogenized at 4° C. and ultrasonicated (30 sec/ml). The homogenized solution was centrifuged (105,000×g) for 1 hr at 4° C. to obtain the supernatant in which PDE was dissolved. The supernatant was separated by DEAE-cellulose column chromatography (Whatman DE52 bead) by using eluent (50 mM Tris-HCl, 3.75mM2-mercaptoethanol, pH 6.0) with concentration gradient of 0-1 M sodium acetate to elute PDE isozymes. The PDE activity was measured on the each column fraction by the following process to separate PDE 3 fraction and the inhibition for PDE 3 of the compounds of formula 1 was measured by using the fraction.
To 1.5 ml tube containing 100 ul of reaction mixture (15 mM Tris-HCl, 5 mM MgCl2, 0.5 mg/ml BSA, pH 7.4) were added appropriate amount of PDE 3 fraction and PDE inhibitor and the solution was mixed well. After [^3H]-cAMP or [^3H]-cGMP (500 nM, 2 uCi/ml) was added, the mixture was reacted in incubator of 30° C. for about 1 hour and the reaction was quenched by putting the tube into boiling water for about 45 seconds to 2 min. The tube was chilled in ice bath for about 5 min. To this tube was added snake venom (1 mg/ml, 100 ul) or 5′-nucleotidase (0.1 unit/tube) and the mixture was reacted in incubator of 37° C. for 10 min and chilled in ice bath. 3 times volume of methanol to the resin was added to the anion exchange resin (Bio-Rad resin, AG1-X2, 200-400 mesh) which had been already washed with 0.5 N HCl, H2O, 0.5 N NaOH, H2O, 0.5 N HCl and H2O in order and adjusted to pH 5. Then 1 ml of the pretreated resin was added to the each tube with vortexing. The mixture was left at 4° C. for 15 min with occasional vortexing and centrifuged (10,000 rpm) for about 5 min to sediment the resin. The supernatant (700 ul) was transferred to a liquid scintillation vial, and mixed with 10 ml of scintillation cocktail. After stabilizing the mixture by leaving it overnight, the radioactivity of the tube was measured by β-counter.

Data set [5] in a line: Metabolism in rat liver (9,000xg supernatant fraction with NADPH). Format: in vitro ADME. The settings on record: 10 ug/ml, 37° C., 1 hr, rat liver 9,000xg supernatant with NADPH generating solution. As for the experimental part: In order to evaluate the extent of metabolism of the compounds of formula 1, the metabolism in rat liver was studied as below similar to the reported method (C. L. Litterist, E. G. Mimnaugh, R. I. Reagan and T. G. Gram., Drug. Metabol. Disposit., 1975, 3, 259-265). In short, the disappearance of compounds after incubation in 9, 000×g supernatant fraction of rat liver homogenate in the presence of NADPH (reduced nicotinamide adenine dinucleotide phosphate) was evaluated.
First, Sprague-Dawley rat (Korea Experiment Animals, SPF) liver was isolated after perfusion through portal vein with 0.1 M phosphate buffer of pH 7.0 using tissue homogenizer at 4° C. After centrifugation at 9,000×g for 20 min, the supernatants were collected.
The compound stock solution was spiked (10 ug/ml) into each of the eppendorf tubes containing 1 ml of the mixed solution composing 1 volume of supernatants and 2 volumes of generating solution. The generating solution contains 1 mM NADP, 10 mM glucose-6-phosphate, 50 mM nicotinamide and 5 MM MgCl2 in 0.1 M phosphate buffer of pH 7.0. After vortex-mixing, each test tube was incubated in a water bath kept at 37° C. After 1 hr, was added acetonitrile to the reaction mixture and centrifuged. 100 ul of aliquot of the supernatant was sampled from each test tube for measuring the remnants by high performance liquid chromatography.

Where [6] appears, read: citrate-HCl buffer, pH 2, aqueous buffer, citrate-HCl buffer (pH 2), read-out: solubility pH 2.
[7] abbreviates: citrate-NaOH buffer, pH 5, aqueous buffer, citrate-NaOH buffer (pH 5), read-out: solubility pH 5.

As for `CCOc1ccc(S(=O)(=O)NCCC2CCCN2C)cc1-c1nc2c(CC(C)C)nn(C)c2c(=O)[nH]1` (stereo not shown) [Example 70, 5-[2-ethoxy-5-(1-methyl-2-pyrrolidinylethylamidosulfonyl)phenyl]-1-methyl-3-isobutyl-1,6-dihydro-7H-pyrazolo(4,3-d)pyrimidin-7-one], the solubility at 30 min in data set [1] (setting [6]) worked out at 795 µg/mL (≈ 1540 µM); in data set [1] (setting [7]) it was 708 µg/mL (≈ 1370 µM). Moreover, in data set [2], the LD50 was more than 1000 mg/kg. Further, the IC50 in data set [3] is 20.3 nM; in data set [4] it was 61.5 µM. In the data set on rats, the “PEI (penile erection index)” value came out at 175.0 ± 50.0. Moreover, in the data set on rats, the “genital grooming (number of genital groomings)” value (from here on “genital grooming”) was found to be 1.8 ± 0.5. In addition, the “remnants (%)” value in data set [5] turned out to be 94.1%.

With `CCOc1ccc(S(=O)(=O)NCc2cccnc2)cc1-c1nc2c(CC(C)C)nn(C)c2c(=O)[nH]1` [Example 48, 5-[2-ethoxy-5-(3-pyridylmethylamidosulfonyl)phenyl]-1-methyl-3-isobutyl-1,6-dihydro-7H-pyrazolo(4,3-d)pyrimidin-7-one], the values for the solubility at 30 min in data set [1] (setting [6]) and in data set [1] (setting [7]) were 114 µg/mL (≈ 230 µM) and 0.3 µg/mL (≈ 0.604 µM), respectively. For the same compound, the LD50 in data set [2] was more than 1000 mg/kg. Further, the figures for the IC50 in data set [3] and in data set [4] were 0.89 nM and 33.6 µM, respectively. In addition, the “PEI (penile erection index)” value in the data set with rats turned out to be 166.7 ± 57.7. Moreover, in the data set on rats, the “genital grooming” value is 1.3 ± 0.6. The “remnants (%)” value in data set [5] is reported as 66.0%.

On to `CCOc1ccc(S(=O)(=O)NCC2CCN(C)C2)cc1-c1nc2c(CC(C)C)nn(C)c2c(=O)[nH]1` (stereo not shown) [Example 62, 5-[2-ethoxy-5-(1-methyl-3-pyrrolidinylmethylamidosulfonyl)phenyl]-1-methyl-3-isobutyl-1,6-dihydro-7H-pyrazolo(4,3-d)pyrimidin-7-one], for which the “solubility pH 2” value in data set [1] (citrate-HCl buffer (pH 2)) was found to be 4383 ug/ml. In addition, the solubility at 30 min was in the range of 3720 to 5360 µg/mL (≈ 7400 to 10700 µM) in data set [1] (setting [6]) and 4920 to 14800 µg/mL (≈ 9790 to 29400 µM) in data set [1] (setting [7]). For the same compound, in data set [1] (citrate-NaOH buffer (pH 5)), the “solubility pH 5” value stood at 3596 ug/ml. Moreover, the LD50 in data set [2] was more than 1000 mg/kg. Moreover, the IC50 was 41.7 nM in data set [3] and 164 µM in data set [4]. In the data set with rats, the “PEI (penile erection index)” value stood at 200.0 ± 100.0. The “genital grooming” value in the data set on rats amounted to 3.0 ± 1.0. Besides, in data set [5], the “remnants (%)” value was 94.5%.

Consider `CCCOc1ccc(S(=O)(=O)NCc2ccncc2)cc1-c1nc2c(CCC)nn(C)c2c(=O)[nH]1` [Example 44, 5-[2-propyloxy-5-(4-pyridylmethylamidosulfonyl)phenyl]-1-methyl-3-propyl-1,6-dihydro-7H-pyrazolo(4,3-d)pyrimidin-7-one], for which the solubility at 30 min came to 373 µg/mL (≈ 751 µM) in data set [1] (setting [6]) and 1 µg/mL (≈ 2.01 µM) in data set [1] (setting [7]). The LD50 in data set [2] was more than 1000 mg/kg. The half-maximal inhibitory concentration (IC50) in data set [3] was 0.328 nM; in data set [4] it was 12.6 µM. In addition, in the data set on rats, the “PEI (penile erection index)” value was determined as 166.7 ± 115.5. Moreover, the “genital grooming” value with rats stood at 1.3 ± 0.6. The “remnants (%)” value in data set [5] was 49.8%.

`CCOc1ccc(S(=O)(=O)NCc2ccncc2)cc1-c1nc2c(CC(C)C)nn(C)c2c(=O)[nH]1` [Example 46, 5-[2-ethoxy-5-(4-pyridylmethylamidosulfonyl)phenyl]-1-methyl-3-isobutyl-1,6-dihydro-7H-pyrazolo (4,3-d)pyrimidin-7-one]: the solubility at 30 min in data set [1] (setting [6]) turned out to be 183 µg/mL (≈ 369 µM); in data set [1] (setting [7]), 0.4 µg/mL (≈ 0.805 µM). For the same compound, the LD50 in data set [2] was more than 1000 mg/kg. In addition, the results for the IC50 in data set [3] and in data set [4] were 1.2 nM and more than 201 µM, respectively. The “PEI (penile erection index)” value in the data set on rats is 200.0 ± 173.2. Moreover, the “genital grooming” value with rats amounted to 1.3 ± 0.6. The “remnants (%)” value in data set [5] was 75.9%.

With `CCOc1ccc(S(=O)(=O)Nc2ccncc2)cc1-c1nc2c(CC(C)C)nn(C)c2c(=O)[nH]1` [Example 37, 5-[2-ethoxy-5-(4-pyridylamidosulfonyl)phenyl]-1-methyl-3-isobutyl-1,6-dihydro-7H-pyrazolo(4,3-d)pyrimidin-7-one], the solubility at 30 min in data set [1] (setting [6]) turned out to be 99 µg/mL (≈ 205 µM). Further, in data set [1] (setting [7]), the solubility at 30 min was 7 µg/mL (≈ 14.5 µM). Moreover, the LD50 in data set [2] was more than 1000 mg/kg. Moreover, the IC50 in data set [3] is 0.897 nM. Moreover, in the data set on rats, the “PEI (penile erection index)” value stood at 166.7 ± 57.7 and the “genital grooming” value is reported as 1.3 ± 0.6. Also, the “remnants (%)” value in data set [5] is given as 94.8%.

As usually defined, the solubility is the concentration that dissolves in the medium under given conditions. Broadly, the IC50 is the concentration at which inhibition is half-maximal.
